Measured values reported in ChEMBL document CHEMBL1932941, “3-mercapto-1,2,4-triazoles and N-acylated thiosemicarbazides as metallo-β-lactamase inhibitors” (Bioorg Med Chem Lett, 2012).

Legend:
[1] = target: Beta-lactamase (Pseudomonas aeruginosa) (UniProt Q79MP6); experiment: Inhibition of Pseudomonas aeruginosa beta-lactamase IMP-1 expressed in Escherichia coli BL21(DE3) at 10 uM using CENTA as chromogenic substrate
[2] = Solubility of the compound; type: physicochemical
[3] = target: Beta-lactamase (Pseudomonas aeruginosa) (UniProt Q79MP6); experiment: Inhibition of Pseudomonas aeruginosa beta-lactamase IMP-1 expressed in Escherichia coli BL21(DE3) at 1000 uM using CENTA as chromogenic substrate
[4] = target: Beta-lactamase (Pseudomonas aeruginosa) (UniProt Q79MP6); experiment: Inhibition of Pseudomonas aeruginosa beta-lactamase IMP-1 expressed in Escherichia coli BL21(DE3) at 100 uM using CENTA as chromogenic substrate
[5] = target: Beta-lactamase (Pseudomonas aeruginosa) (UniProt Q79MP6); experiment: Uncompetitive inhibition of Pseudomonas aeruginosa beta-lactamase IMP-1 assessed as formation of 4-nitrothiophenolate at pH 7 using CENTA as chromogenic substrate
[6] = target: Beta-lactamase (Pseudomonas aeruginosa) (UniProt Q79MP6); experiment: Competitive inhibition of Pseudomonas aeruginosa beta-lactamase IMP-1 assessed as formation of 4-nitrothiophenolate at pH 7 using CENTA as chromogenic substrate

Sequence of Beta-lactamase (Pseudomonas aeruginosa) (Q79MP6 19-246 limits assumed): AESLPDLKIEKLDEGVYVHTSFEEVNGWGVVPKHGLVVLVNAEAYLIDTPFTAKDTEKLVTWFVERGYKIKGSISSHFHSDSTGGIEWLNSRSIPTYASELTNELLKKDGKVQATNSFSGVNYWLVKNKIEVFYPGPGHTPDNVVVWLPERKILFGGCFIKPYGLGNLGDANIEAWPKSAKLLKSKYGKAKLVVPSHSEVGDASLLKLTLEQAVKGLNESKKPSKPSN

| Compound | inhibition [1] [%] | Kiuc [5] [µM] | further results |
| --- | --- | --- | --- |
| NC(=S)NNC(=O)CCC(=O)O | 13 |  |  |
| CCCCCCSc1nnc(C(C)(C)C)[nH]1 |  |  | solubility [2]: Insoluble |
| FC(F)(F)c1nnc(S)[nH]1 |  |  | inhibition [3]: 45% |
| O=C(O)c1ccccc1-c1nnc(S)[nH]1 | 0 |  | inhibition [4]: 7% |
| C[C@H](CS)C(=O)N1CCC[C@H]1C(=O)O |  | > 2000 |  |
| CC(C)(C)C(=O)NNC(N)=S | 0 |  |  |
| CSc1nnc(C(C)(C)C)[nH]1 |  |  | inhibition [3]: 10% |
| CC(C)(C)c1nnc(S)[nH]1 |  |  | inhibition [3]: 32% |
| O=C(O)CCCc1nnc(S)[nH]1 | 0 |  | inhibition [4]: 5% |
| CCc1nnc(S)[nH]1 |  |  | inhibition [3]: 32% |
| NC(=S)NNC(=O)CCCC(=O)O | 8 |  |  |
| O=[N+]([O-])c1cccc(-c2nnc(S)[nH]2)c1 |  |  | solubility [2]: Insoluble |
| Cc1nnc(S)[nH]1 |  |  | inhibition [3]: 33% |
| Cn1c(S)nnc1C(F)(F)F |  |  | inhibition [3]: 51% |
| CCCCCCc1nnc(S)[nH]1 |  |  | solubility [2]: Insoluble |
| CNC(=S)NNC(=O)C(C)(C)C | 0 |  |  |
| O=C(O)CCc1nnc(S)[nH]1 | 10 |  | inhibition [4]: 10% |
| Sc1n[nH]c(-c2ccccc2)n1 |  |  | inhibition [3]: 0% |
| Cc1nnc[nH]1 |  |  | inhibition [3]: 0% |

Continued, in another order:

| inhibition [1] [%] | Kiuc [5] [µM] | Compound | further results |
| --- | --- | --- | --- |
| 45 | 15 | NC(=S)NNC(=O)c1ccc(C(=O)c2cccc([N+](=O)[O-])c2)cc1 | Kic [6]: 16 µM |
| 45 | 20 | NC(=S)NNC(=O)c1ccc(C(=O)c2ccc([N+](=O)[O-])cc2)cc1 | Kic [6]: 11 µM |
| 10 | 56 | O=C(c1ccccc1)c1ccc(-c2nnc(S)[nH]2)cc1 | inhibition [4]: 44%; Kic [6]: 75 µM |
| 51 | 13 | NC(=S)NNC(=O)c1ccc(C(=O)c2ccccc2Cl)cc1 | Kic [6]: 14 µM |
| 22 | 30 | NC(S)=NNC(=O)c1ccccc1 | Kic [6]: 19 µM |
| 0 |  | NC(=S)NNC(=O)c1ccccc1C(=O)O |  |
| 34 | 26 | NC(=S)NNC(=O)c1ccc(C(=O)c2ccccc2)cc1 | Kic [6]: 13 µM |
| 38 | 20 | Cc1ccc(C(=O)c2ccc(C(=O)NNC(N)=S)cc2)cc1 | Kic [6]: 41 µM |
| 26 | 37 | NC(=S)NNC(=O)c1ccc(Cc2ccccc2)cc1 | Kic [6]: 18 µM |
| 30 |  | NC(=S)NNC(=O)c1cccc([N+](=O)[O-])c1 |  |
